The values below come from patent US6761904B2 (Nycomed Austria GmbH, priority 2000, dated 2004).

The nature of data set [1]: Plasma pharmacokinetics of midodrine and desglymidodrine after oral intake / colon absorption (general findings and presumptions). It is filed as in vivo, human. The following applies: for Cmax: 7.5 mg, presumption made in estimating the target profile, obtained after tablet administration.
For data set [2] the following is noted: after oral administration of a single dose; cited from earlier work.

As a reminder, the Cmax is the maximum level reached in the sampled fluid or tissue. As to `COc1ccc(OC)c(C(O)CNC(=O)CN)c1` (stereo not shown) [midodrine, 2-amino-N-[2-(2,5-dimethoxyphenyl)-2-hydroxyethyl]-acetamide], in data set [1] (human, plasma, oral), the Cmax was approximately 11 ng/mL. Besides, the “tmax after oral intake of midodrine” value in data set [1] (midodrine itself in plasma) was “about 30 min”. In data set [2], the “persistence of the pressor effect” value was 3 to 6 h and the “time until the pressor effect is manifest” value was 20 to 90 min.
What is called Tmax is the time from dosing to the highest level. `COc1ccc(OC)c(C(O)CN)c1` (stereo not drawn) [desglymidodrine, alpha-(aminomethyl)-2,5-dimethoxy-benzenemethanol]: the “tmax of desglymidodrine after colon absorption” value in data set [1] (after application to the colon) is on record as “approximately 3 hours”. Besides, the Cmax in data set [1] (human, in vivo) is approximately 3.75 ng/mL. Further, the Tmax in data set [1] (human, in vivo, po) was in the range of 1 to 2 h.
